The text below walks through data of US4349547A, “Suppressing obesity and over-secretion of insulin with 2-(α-hydroxy-m-trifluoromethylbenzyl)azetidine” (priority 1979, dated 1982).

Data set [1] can be described thus: Estimation of LD50 in mice. The arrangement: species or system mouse (ICR). The conditions noted are these: mouse, in vivo; oral; kept for seven days; Probit analysis. As for the experimental part: (e) Estimation of LD50 in mice
ICR mice, male and aged nine weeks, were used without fasting. The mice (in groups of six individuals) were orally dosed with a solution of erythro-(I) hydrochloride (333, 500 and 750 mg/kg) or erythro-(VIII) hydrochloride (750, 1100 and 1700 mg/kg) in 5% gum arabic and kept for seven days. LD50 was calculated using the Probit analysis.

Data set [2] concerns biosynthesis of fatty acid. Kind of data set: Suppression of biosynthesis of fatty acid (incorporation of glucose-U-14C into liver and epididymal adipose tissue lipids). The data set is classed as in vivo, rat (SD). The conditions noted are these: Rattus norvegicus, 1 h, oral, 50% inhibition of glucose-U-14C incorporation, 60 minutes after glucose. As for the experimental part: (c) Suppression of biosynthesis of fatty acid
Male SD rats fasted for 24 hours, were orally dosed with erythro-(I) hydrochloride and after a lapse of 30 minutes, glucose-U-^14 C (140 μCi/2 g/kg) was orally administered. The animals were sacrificed after 60 minutes and the amounts of incorporation of glucose-U-^14 C into the liver and the epididymal adipose tissue lipids were determined to calculate the dose (ED50) which caused a 50% inhibition of glucose-U-^14 C incorporation, as compared to control rats, which had fasted, had not been so dosed, and had been orally administered with glucose-U-^14 C (140μCi/2 g/kg).

Data set [3] can be described thus: Anorectic effect in rats. Type of data set: in vivo, rat (Sprague-Dawley). The conditions noted are these: Rattus norvegicus, oral gavage, 50% inhibition of food intake. As for the experimental part: (b) Anorectic effect in rats
Sprague-Dawley (SD) rats, male and aged seven weeks, fasted for 24 hours (in groups of six individuals) were dosed, by oral gavage, with a solution of each test compound in 5% gum arabic, and feeding (CE-2 powder) was started at 0.5 hour after administration. The dose (ED50) which caused a 50% inhibition of food intake as compared with the control dosed with 5% gum arabic was determined.

Data set [4] relates to insulin secretion. Put plainly: Suppression of insulin secretion (insulin area after glucose loading). Type of data set: in vivo, rat (Fatty rats). The conditions noted are these: 50 mg/kg oral; glucose 3 g/kg after 30 minutes; blood at 30, 60 and 120 minutes; control 739. The method, then:
(d) Suppression of insulin secretion
Fatty rats, female and aged 14 weeks, were used after fasting for 24 hours. The rats (in groups of five individuals) were orally dosed with a solution of 50 mg/kg of erythro-(I) hydrochloride in 5% gum arabic and, after 30 minutes, glucose (3 g/kg) was orally administered. At 30, 60 and 120 minutes after glucose loading, blood was withdrawn. The plasma samples were assayed for insulin and the insulin area was calculated.

Data set [5] can be described thus: Anorectic effect in mice. The data set is classed as in vivo, mouse (ICR). The conditions noted are these: 50 mg/kg oral gavage, control = 100. The method, then: (a) Anorectic effect in mice
ICR mice, male and aged seven weeks (in groups of six individuals), which had been acclimatized to 6-hour/day feeding (CE-2 powder, commercial product of Clea Japan Ltd., Tokyo, Japan) for seven days were administered a dosage, by oral gavage, with a solution of 50 mg/kg of each test compound in 5% gum arabic at 0.5 hour before feeding on the eighth day, and the food intakes were compared with those of control mice given 5% gum arabic only. Each figure in the table is the percent food intake, with the corresponding figure for the control being 100.

For data set [6] the following is noted: in vivo.
Data set [7] is described as follows: Toxicity (general statement). The conditions noted are these: in vivo.
Data set [8] in a line: Antiobesity action (general statement). Type of data set: in vivo. The conditions noted are these: compared with (VII).
Where [9] appears, read: 0.5 hour, read-out: ED50 0.5 hour after administration.
The mark [10] stands for this setting: 1 hour, read-out: ED50 1 hour after administration.
The mark [11] stands for this setting: 2 hours, read-out: ED50 2 hours after administration.

Where a name gives a salt, the structure may show the parent alone. Read-outs that look alike come from different tables or passages of the source.

By LD50 is commonly meant the dose expected to kill half of the subjects tested. Consider `O[C@@H](c1cccc(C(F)(F)F)c1)[C@H]1CCN1` (relative stereo) [Erythro-(I) hydrochloride, erythro-2-(α-hydroxy-m-trifluoromethylbenzyl)azetidine hydrochloride], for which the LD50 at 168 h in data set [1] was 499 mg/kg. In addition, the ED50 amounted to 20 mg/kg in data set [2] (epididymal adipose tissue lipids, read-out: Epididymal adipose tissue: ED50); 20 mg/kg in data set [2] (liver lipids, read-out: Liver: ED50); 20 mg/kg in data set [3] (setting [9]); 20 mg/kg in data set [3] (setting [10]); 25 mg/kg in data set [3] (setting [11]). Also, in data set [4], the Insulin area turned out to be 51 μU/ml.hr. Besides, in data set [5], the “Food intake (%) 0.5 hour after administration” value (“Food intake (%) 0.5 hour” for short) came to 44.0%. Moreover, the “Food intake (%) 1 hour after administration” value (shortened to “Food intake (%) 1 hour”) in data set [5] was 50.6%. Also, the “Food intake (%) 2 hours after administration” value (from here on “Food intake (%) 2 hours”) in data set [5] was 67.0%.

For `O[C@@H](c1ccccc1)[C@H]1CCN1` (relative stereo) [Erythro-(VII) hydrochloride, 2-(α-hydroxybenzyl)azetidine, reference compound], the LD50 at 168 h in data set [1] was 902 mg/kg. Moreover, the ED50 in data set [3] (setting [9]) came out at 35 mg/kg; in data set [3] (setting [10]), 50 mg/kg; in data set [3] (setting [11]) it was 300 mg/kg.

In the case of `O[C@@H](c1cccc(C(F)(F)F)c1)[C@@H]1CCN1` (relative stereo) [Threo-(I) hydrochloride, Threo-2-(α-hydroxy-m-trifluoromethylbenzyl)azetidine hydrochloride], in data set [5], the “Food intake (%) 0.5 hour” value amounted to 55.0%, the “Food intake (%) 1 hour” value is 72.0% and the “Food intake (%) 2 hours” value stood at 84.8%.

On to `O[C@@H](c1ccccc1)[C@@H]1CCN1` (relative stereo) [Threo-(VII) hydrochloride, 2-(α-hydroxybenzyl)azetidine, reference compound], for which, in data set [5], the “Food intake (%) 0.5 hour” value came to 70.0%, the “Food intake (%) 1 hour” value was 89.3% and the “Food intake (%) 2 hours” value came out at 98.3%.

`OC(c1cccc(C(F)(F)F)c1)C1CCN1` (stereo not drawn) [Compound (I), 2-(α-hydroxy-m-trifluoromethylbenzyl)azetidine]: the “absorbability on oral administration” value in data set [6] was “good absorbability on oral administration”. Moreover, the toxicity result in data set [7] is given as “low toxicity”. Moreover, in data set [8], the antiobesity action entry is “very potent and long lasting antiobesity action, surpassing the action of (VII)”.
